Several values for one entry are separate records, joined by “and”; a condition that tells them apart may be missing. Equal entries are not always repeated. Entries after “also recorded” stand apart in the source; their conditions may differ. Structures can show the parent of a compound that is named as a salt. Where two headings read alike, the source gives them in different places.
Assays:
[1] = DPPH radical scavenging (antioxidant) assay; conditions: for Percentage of inhibited DPPH (2 h): mean ± SEM
Experimental: The antioxidant capacity of the selected Se compound was tested using the DPPH assay described by Astrain-Redin. The compound was tested at three different concentrations (0.06, 0.03, and 0.015 mg/mL) and we used two positive controls: ascorbic acid (ASC) and trolox (TRO). A solution of DPPH (2,2-diphenyl-1-picrylhydrazyl) in methanol (0.04 mg/mL, preserved in the dark) was prepared and 100 μL of this stock solution was added to 100 μL of tested compound solution. The color change, from purple (radical) to yellow (reduced), was measured at 517 nm at different time points (0, 5, 15, 30, 60, 90, and 120 min). All measurements were carried out in triplicate and recorded on a BioTek PowerWave XS spectrophotometer (Biotek). Data were collected using BioTek Gen5Microplate reader and Imager software (Agilent, version 3.12). Results are expressed as a percentage of inhibited DPPH ± standard error of the mean (SEM), calculated using the following formula %inhibitedDPPH=Acontrol−Asample/Acontrol×100 where A control refers to the absorbance of the negative control and A sample refers to the absorbance of the tested compound.

T. cruzi CAI/72 strain = assay: Antiparasitic activity in C2C12 cells infected with T. cruzi CAI/72 (image-based assay); type: cell-based; conditions: for EC50: mean of three experiments in triplicate (n = 9) ± SD
Experimental: Antiparasitic activity and cytotoxicity of compounds were determined as described before (da Silva et al., Boudreau et al.). Mouse myoblasts cell line C2C12 (ATCCCRL-1772), were maintained in high glucose (4.5 g/L glucose) Dulbecco’s modified Eagle’s medium (DMEM Gibco), supplemented with 1% penicillin–streptomycin 10,000 U/mL (Gibco) and 5% fetal bovine serum (FBS, Sigma-Aldrich) at 37 °C with 5% CO2. parasites (CAI/72 strain, DTU TcI) were maintained by weekly coinfection with C2C12 cells. For all activity assays, C2C12 cells were infected at a 10:1 parasite-to-cell ratio with culture-derived trypomastigotes, which were harvested from the supernatant of infected C2C12 cells. After adding compounds to 384-well black clear-bottom plates (Greiner cat. no. 781091), trypomastigotes (7000 parasites/well) and C2C12 cells (700 cells/well) were seeded in a total volume of 50 μL of DMEM per well in the 384-well plates. Compounds were first tested at 10 μM. […] Plates were imaged with the automated ImageXpress MicroXL microscope (Molecular Devices) and analyzed by MetaXpress software (Molecular Devices) using a custom module optimized for this assay. Infection levels (parasites per host cell) were normalized to the positive control (40 μM BNZ) and negative control (DMSO). Antiparasitic activity (EC50) ± standard deviation (SD) and host cell cytotoxicity (C2C12 viability) values were determined from the DRC using Prism software (GraphPad Software, La Jolla, CA). Every assay has three biological replicates, each in triplicates (n = 9 data points).

[2] = Host cell cytotoxicity (C2C12 viability); type: cell-based, Mouse; conditions: mouse; for viability at 48 h, 10 µM: < 50% viability considered cytotoxic; for CC50 at 48 h: viability calculated at 10 μM
Experimental: (§1) Antiparasitic activity and cytotoxicity of compounds were determined as described before (da Silva et al., Boudreau et al.). Mouse myoblasts cell line C2C12 (ATCCCRL-1772), were maintained in high glucose (4.5 g/L glucose) Dulbecco’s modified Eagle’s medium (DMEM Gibco), supplemented with 1% penicillin–streptomycin 10,000 U/mL (Gibco) and 5% fetal bovine serum (FBS, Sigma-Aldrich) at 37 °C with 5% CO2. parasites (CAI/72 strain, DTU TcI) were maintained by weekly coinfection with C2C12 cells. For all activity assays, C2C12 cells were infected at a 10:1 parasite-to-cell ratio with culture-derived trypomastigotes, which were harvested from the supernatant of infected C2C12 cells. After adding compounds to 384-well black clear-bottom plates (Greiner cat. no. 781091), trypomastigotes (7000 parasites/well) and C2C12 cells (700 cells/well) were seeded in a total volume of 50 μL of DMEM per well in the 384-well plates. Compounds were first tested at 10 μM. […] After 48 h at 37 °C and 5% CO2, plates were fixed with 4% formaldehyde solution for at least 1 h, washed with 1× PBS, and stained with 5 μg/mL of 4′,6-diamidino-2-phenylindole (DAPI) for at least 1 h prior to reading. Plates were imaged with the automated ImageXpress MicroXL microscope (Molecular Devices) and analyzed by MetaXpress software (Molecular Devices) using a custom module optimized for this assay. Infection levels (parasites per host cell) were normalized to the positive control (40 μM BNZ) and negative control (DMSO). Antiparasitic activity (EC50) ± standard deviation (SD) and host cell cytotoxicity (C2C12 viability) values were determined from the DRC using Prism software (GraphPad Software, La Jolla, CA). Every assay has three biological replicates, each in triplicates (n = 9 data points).

recombinant Cz (cruzain) = biological target: T1, recombinant Cz (cruzain) (Trypanosoma cruzi, UniProt P25779); assay: biochemical; conditions: for SICz: ratio between IC50 hCatL and IC50 Cz; for inhibition at 10 µM: read-out: Cz inhibition (%), 10 µM; for Cz inhibition (%): 10 µM
T1 construct: Cz was expressed and purified as described in da Silva et al; made in house
Experimental: The screening assay was performed using 1 nM of Cz diluted in 0.1 M sodium acetate pH 5.5, 1 mM dithiothreitol (DTT), and 0.01% Triton X-100. Cz was expressed and purified as described in da Silva et al. The reaction starts after 10 min incubating the enzyme with the compounds (10 μM), when adding 2.5 μM of the substrate Z-FR-AMC final concentration (Z-Phe-Arg-amidomethylcoumarin, Sigma-Aldrich, C9521) diluted in the same assay buffer (final volume of 30 μL). The experiment was performed for 10 min. […] The DRC was performed with at least nine different concentrations of the inhibitors, diluted by 2-fold serial dilution, ranging from […] to 10 μM.
(§2) All experiments were accomplished in a 384-well black microplate, using a Synergy HTX (Biotek) plate reader at 25 °C with absorption/emission wavelengths of 360/460 nm. All assays were performed in triplicate wells and DMSO was used as a vehicle control. Enzymatic activity was measured and normalized to DMSO controls, and the inhibitor E-64 (10 μM) was used as a positive control for all assays. All experiments were performed in triplicates, with at least two independent assays (n = 6 data points). IC50 values were determined through nonlinear regression. Obtained data were treated and analyzed using GraphPad Prism 9.0 (GraphPad Software, La Jolla, California).

[3] = biological target: T2, Recombinant human cathepsin L (hCatL) (Homo sapiens, UniProt P07711); assay: Human cathepsin L inhibition assay (Z-FR-AMC substrate); type: biochemical
T2 construct: purchased R&D Systems 952-CY
Experimental: Compounds were screened at 10 μM. […] The experiment was performed for 30 min.
as §2

[4] = Compound stability (authors' observation); type: physicochemical; conditions: reason for discontinuation
C2C12 cells = assay: Host cell cytotoxicity (C2C12 viability); type: cell-based, Mouse; conditions: 10 µM; < 50% viability considered cytotoxic
Experimental: as §1

[5] = Trypanosoma cruzi, 10 µM, C2C12 infected cells, read-out: Anti-Tc CAI/72 activity (%)
[6] = C2C12 myoblast cells infected with trypomastigotes
[7] = mean of two experiments in triplicate (n = 6) ± SEM, read-out: IC50 Cz
[8] = mean of two experiments in triplicate (n = 6) ± SEM, read-out: IC50 hCatL
[9] = no DRC performed, bound from the screen at 10 µM, read-out: IC50 hCatL
[10] = Trypanosoma cruzi, C2C12, read-out: Anti-Tc CAI/72 activity (%)
[11] = Trypanosoma cruzi, C2C12, 48 h, read-out: EC50 Tc CAI/72, intracellular amastigotes in C2C12 cells, 48 h
[12] = read-out: EC50 Tc CAI/72, intracellular amastigotes in C2C12 cells, 48 h
[13] = IC50 Cz, single biological replicate (Figure 3), each of two biological replicates in triplicate
[14] = each of two biological replicates in triplicate, read-out: IC50 hCatL, single biological replicate (Figure 4)
[15] = 10 µM, C2C12 infected cells, read-out: Anti-Tc CAI/72 activity (%)

T2 sequence (P07711 114-333): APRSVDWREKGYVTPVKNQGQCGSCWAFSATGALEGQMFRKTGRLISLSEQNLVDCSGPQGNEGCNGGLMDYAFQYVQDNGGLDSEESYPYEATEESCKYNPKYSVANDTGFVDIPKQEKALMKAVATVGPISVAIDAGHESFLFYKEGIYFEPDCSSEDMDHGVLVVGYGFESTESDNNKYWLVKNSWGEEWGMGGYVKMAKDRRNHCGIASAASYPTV
T1 sequence (P25779 123-337 limits assumed): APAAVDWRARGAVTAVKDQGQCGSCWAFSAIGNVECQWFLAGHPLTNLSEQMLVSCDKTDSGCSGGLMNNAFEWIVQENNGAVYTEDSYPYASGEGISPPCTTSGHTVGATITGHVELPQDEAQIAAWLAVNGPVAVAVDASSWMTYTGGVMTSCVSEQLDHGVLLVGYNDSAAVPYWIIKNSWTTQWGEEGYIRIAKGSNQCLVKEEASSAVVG

O=C1O[C@H]([C@@H](O)CO)C(O)=C1O [ASC, ascorbic acid]
Percentage of inhibited DPPH (2 h) ([1]; 0,03 mg/ml): 80,33 ± 0,33%
Percentage of inhibited DPPH (2 h) ([1]; 0,06 mg/ml): 80,33 ± 0,67%
time to reach the plateau of the DPPH kinetic curve ([1]; 0.015 mg/mL): 0 min
Percentage of inhibited DPPH (2 h) ([1]; 0,015 mg/ml): 65,33 ± 2,03%

C/C(=N\NC(N)=S)c1cccc([N+](=O)[O-])c1 [Compound S1h, (E)-2-(1-(3-Nitrophenyl)ethylidene)hydrazine-1-carbothioamide]
inhibition at 10 µM (T. cruzi CAI/72 strain; [5]): 24.8%
viability at 48 h, 10 µM [2, 6]: > 100%
IC50 (recombinant Cz (cruzain); [7]): 1.15 ± 0.74 nM
SICz (recombinant Cz (cruzain)): 164.83
inhibition at 10 µM (recombinant Cz (cruzain)): 100%
inhibition at 10 µM [3]: 94.5%
IC50 [3, 8]: 190 ± 18.4 nM

C/C(=N\Nc1nc(C)cs1)c1cccc([N+](=O)[O-])c1 [Compound S2h, (E)-4-Methyl-2-(2-(1-(3-nitrophenyl)ethylidene)hydrazineyl)thiazole Hydrochloride]
inhibition at 10 µM (T. cruzi CAI/72 strain; [5]): 28.8%
viability at 48 h, 10 µM [2, 6]: > 100%
IC50 (recombinant Cz (cruzain); [7]): 1280 ± 1120 nM
inhibition at 10 µM (recombinant Cz (cruzain)): 96.9%
inhibition at 10 µM [3]: 12.1%
IC50 [3, 9]: > 10000 nM

C/C(=N\Nc1nc(C)cs1)c1cccc(Cl)c1 [Compound S2i, (E)-2-(2-(1-(3-Chlorophenyl)ethylidene)hydrazineyl)-4-methylthiazole]
inhibition at 10 µM (T. cruzi CAI/72 strain; [5]): 49.3%
viability at 48 h, 10 µM [2, 6]: > 100%
IC50 (recombinant Cz (cruzain); [7]): 142 ± 79.2 nM
inhibition at 10 µM (recombinant Cz (cruzain)): 97.5%
inhibition at 10 µM [3]: 24.7%
IC50 [3, 9]: > 10000 nM

C/C(=N\NC(N)=[Se])c1ccc(C#N)cc1 [Se1e, (E)-2-(1-(4-Cyanophenyl)ethylidene)hydrazine-1-carboselenoamide]
inhibition at 10 µM (T. cruzi CAI/72 strain; [10]): 57.1%
viability at 48 h, 10 µM [2]: > 100%
inhibition at 10 µM (recombinant Cz (cruzain)): 104%
stability of the compound [4]: stability problems; also recorded: lack of stability

C/C(=N\NC(N)=[Se])c1ccc(Br)cc1 [Se1f, (E)-2-(1-(4-Bromophenyl)ethylidene)hydrazine-1-carboselenoamide]
EC50 (T. cruzi CAI/72 strain; [11]): < 1000 nM
inhibition at 10 µM (T. cruzi CAI/72 strain; [5]): 69.5%
EC50 (T. cruzi CAI/72 strain; [12]): 770 ± 170 nM
viability at 48 h, 10 µM [2]: > 100%
CC50 at 48 h [2]: > 10000 nM
Cz inhibition (%) (recombinant Cz (cruzain)): 101.08%
IC50 (recombinant Cz (cruzain); [13]): 17.8 nM and 10.7 nM
IC50 (recombinant Cz (cruzain); [7]): 14.3 ± 3.57 nM
SICz (recombinant Cz (cruzain)): 7.42
inhibition at 10 µM (recombinant Cz (cruzain)): > 85%
inhibition at 10 µM [3]: 97.3%
IC50 [3, 14]: 91.3 nM and 121 nM
IC50 [3, 8]: 106 ± 14.9 nM

C/C(=N\NC(N)=[Se])c1cccc([N+](=O)[O-])c1 [Se1h, (E)-2-(1-(3-Nitrophenyl)ethylidene)hydrazine-1-carboselenoamide]
inhibition at 10 µM (T. cruzi CAI/72 strain; [5]): 41%
viability at 48 h, 10 µM [2]: 97.3%
IC50 (recombinant Cz (cruzain); IC50 Cz, mean of two experiments in triplicate (n = 6) ± SEM): 0.91 ± 0.18 nM
SICz (recombinant Cz (cruzain)): 10.22
inhibition at 10 µM (recombinant Cz (cruzain)): 104%
inhibition at 10 µM [3]: 98.7%
IC50 [3, 8]: 9.32 ± 0.38 nM

C/C(=N\Nc1nc(C)c[se]1)c1cccc(Cl)c1.Cl [Se2i, (E)-2-(2-(1-(3-Chlorophenyl)ethylidene)hydrazineyl)-4-methyl-1,3-selenazole Hydrochloride]
EC50 (T. cruzi CAI/72 strain; [11]): < 1000 nM
inhibition at 10 µM (T. cruzi CAI/72 strain; [10]): 65%
EC50 (T. cruzi CAI/72 strain; [12]): 530 ± 570 nM
viability at 48 h, 10 µM [2]: > 100%
CC50 at 48 h [2]: > 10000 nM
Cz inhibition (%) (recombinant Cz (cruzain)): 102.55%
IC50 (recombinant Cz (cruzain); [13]): 63.8 nM and 99.5 nM
IC50 (recombinant Cz (cruzain); [7]): 81.7 ± 17.9 nM
SICz (recombinant Cz (cruzain)): 5.55
inhibition at 10 µM (recombinant Cz (cruzain)): > 85%
inhibition at 10 µM [3]: 98%
IC50 [3, 14]: 458 nM and 449 nM
IC50 [3, 8]: 453.7 ± 4.4 nM

Cc1c(C)c2c(c(C)c1O)CCC(C)(C(=O)O)O2 (centres unmarked) [TRO, trolox]
Percentage of inhibited DPPH (2 h) ([1]; 0,03 mg/ml): 79,33 ± 0,88%
Percentage of inhibited DPPH (2 h) ([1]; 0,06 mg/ml): 79,67 ± 0,67%
time to reach the plateau of the DPPH kinetic curve ([1]; 0.015 mg/mL): 5 min
percentage of activity in the DPPH kinetic curve ([1]; 0.015 mg/mL, kinetic curve over 2 h): 80%
Percentage of inhibited DPPH (2 h) ([1]; 0,015 mg/ml): 79,33 ± 1,33%

(E)-2-(1-(4-Cyanophenyl)ethylidene)hydrazine-1-carbothioamide [Compound S1e]
inhibition (T. cruzi CAI/72 strain; [15]): 31.6%
C2C12 viability (%) (C2C12 cells): >100%
Cz inhibition (%) (recombinant Cz (cruzain)): 98.77%

(E)-2-(1-((3r,5r,7r)-Adamantan-1-yl)ethylidene)hydrazine-1-carbothioamide [Compound S1q]
inhibition (T. cruzi CAI/72 strain; [15]): 38.7%
C2C12 viability (%) (C2C12 cells): >100%
Cz inhibition (%) (recombinant Cz (cruzain)): 5.06%

(E)-2-(1-(Thiophen-3-yl)ethylidene)hydrazine-1-carbothioamide [Compound S1l]
inhibition (T. cruzi CAI/72 strain; [15]): 10.9%
C2C12 viability (%) (C2C12 cells): >100%
Cz inhibition (%) (recombinant Cz (cruzain)): 62.83%
